In patent publication US20250064941A1, “SIGLEC LIGANDS, CONJUGATES, AND METHODS OF USE THEREOF” (Osprey Biopharmaceuticals, Inc., priority 2023, published 2025):

How the values were obtained:
[1] = target: T1, mouse Siglec-2-Fc-Avi (CD22) (Mus musculus, UniProt P35329); assay: SPR binding affinity to mouse CD22; conditions: steady-state analysis
T1 construct: made in house
T1 sequence (P35329 22-708 limits assumed): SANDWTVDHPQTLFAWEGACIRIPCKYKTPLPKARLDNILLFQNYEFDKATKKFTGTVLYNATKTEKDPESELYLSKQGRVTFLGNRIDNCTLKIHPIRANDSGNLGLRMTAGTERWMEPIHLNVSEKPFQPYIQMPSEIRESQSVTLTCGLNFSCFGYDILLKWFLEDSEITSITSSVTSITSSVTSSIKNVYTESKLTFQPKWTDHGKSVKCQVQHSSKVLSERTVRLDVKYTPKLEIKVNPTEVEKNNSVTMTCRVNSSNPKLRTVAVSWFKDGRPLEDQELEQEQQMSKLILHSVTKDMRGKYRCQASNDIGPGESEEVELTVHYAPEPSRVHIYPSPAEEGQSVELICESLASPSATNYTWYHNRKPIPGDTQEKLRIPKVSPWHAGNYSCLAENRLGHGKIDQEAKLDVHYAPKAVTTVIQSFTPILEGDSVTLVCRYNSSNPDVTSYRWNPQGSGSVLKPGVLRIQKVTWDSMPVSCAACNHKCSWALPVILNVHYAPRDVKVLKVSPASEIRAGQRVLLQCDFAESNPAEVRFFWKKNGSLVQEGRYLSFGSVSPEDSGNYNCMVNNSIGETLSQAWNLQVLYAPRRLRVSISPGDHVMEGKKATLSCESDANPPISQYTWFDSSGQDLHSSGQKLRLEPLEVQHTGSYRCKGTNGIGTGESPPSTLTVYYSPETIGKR
Procedure, shortened: (§1)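 SialoExo pretreatment, 4 h 37° C.; biotinylated CD22 on SA chip, Biacore 8K. Buffer 10 mM HEPES, 150 mM NaCl, 0.05% Tween-20, pH 7.5, 1% DMSO. Dissociation 120 s; solvent-corrected; steady-state KD.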

[2] = target: T2, human Siglec-2/CD22 protein (Homo sapiens, UniProt P20273); assay: SPR binding affinity to human CD22; conditions: steady-state analysis
T2 construct: purchased Acro Biosystems SI2-H82E3
T2 sequence (P20273 20-847): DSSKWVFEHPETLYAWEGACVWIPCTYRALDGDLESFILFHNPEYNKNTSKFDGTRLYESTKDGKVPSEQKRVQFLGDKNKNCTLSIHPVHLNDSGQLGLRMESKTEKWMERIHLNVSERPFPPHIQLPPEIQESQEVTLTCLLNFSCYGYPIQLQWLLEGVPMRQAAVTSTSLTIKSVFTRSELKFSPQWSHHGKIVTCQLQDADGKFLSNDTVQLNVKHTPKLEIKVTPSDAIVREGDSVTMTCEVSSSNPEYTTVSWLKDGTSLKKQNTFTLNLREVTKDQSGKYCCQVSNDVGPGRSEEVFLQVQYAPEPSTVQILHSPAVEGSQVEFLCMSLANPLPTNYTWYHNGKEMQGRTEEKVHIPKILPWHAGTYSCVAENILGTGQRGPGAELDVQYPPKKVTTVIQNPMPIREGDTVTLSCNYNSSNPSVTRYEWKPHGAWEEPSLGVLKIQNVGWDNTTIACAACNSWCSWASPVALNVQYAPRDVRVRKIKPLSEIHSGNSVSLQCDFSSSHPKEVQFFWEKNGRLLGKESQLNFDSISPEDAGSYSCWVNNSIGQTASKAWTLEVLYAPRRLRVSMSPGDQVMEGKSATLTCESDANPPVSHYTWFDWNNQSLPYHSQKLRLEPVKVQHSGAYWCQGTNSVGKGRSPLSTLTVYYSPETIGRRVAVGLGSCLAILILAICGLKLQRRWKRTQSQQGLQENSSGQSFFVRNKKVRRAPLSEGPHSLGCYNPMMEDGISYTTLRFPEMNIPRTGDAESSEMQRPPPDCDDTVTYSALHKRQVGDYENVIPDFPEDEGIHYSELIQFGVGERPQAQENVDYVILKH
Procedure, shortened: as §1

cynomolgus Siglec-2/CD22 = cynomolgus Siglec-2/CD22 (Macaca fascicularis, UniProt A0A2K5WCZ6); assay: biochemical; assay type: binding; conditions: SPR, steady-state analysis; read-out: Affinity cyno CD22
cynomolgus Siglec-2/CD22, sequence (A0A2K5WCZ6 entry or part of it): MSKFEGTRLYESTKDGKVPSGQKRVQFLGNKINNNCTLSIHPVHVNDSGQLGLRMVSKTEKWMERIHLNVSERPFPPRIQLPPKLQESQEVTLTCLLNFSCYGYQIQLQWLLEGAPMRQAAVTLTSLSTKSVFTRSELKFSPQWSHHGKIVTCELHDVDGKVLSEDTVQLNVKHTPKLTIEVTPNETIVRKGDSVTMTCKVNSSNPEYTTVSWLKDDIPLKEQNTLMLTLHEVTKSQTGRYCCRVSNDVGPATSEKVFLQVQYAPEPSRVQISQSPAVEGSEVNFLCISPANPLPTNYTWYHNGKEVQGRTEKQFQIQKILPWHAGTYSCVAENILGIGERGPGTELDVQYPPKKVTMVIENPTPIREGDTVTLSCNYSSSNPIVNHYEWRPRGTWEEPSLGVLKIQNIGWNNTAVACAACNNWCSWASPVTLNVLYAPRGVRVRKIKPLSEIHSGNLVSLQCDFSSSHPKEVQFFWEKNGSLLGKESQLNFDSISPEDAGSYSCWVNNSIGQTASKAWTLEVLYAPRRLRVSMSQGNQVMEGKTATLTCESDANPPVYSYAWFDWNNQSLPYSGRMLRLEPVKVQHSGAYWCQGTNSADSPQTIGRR
Procedure: Prior to immobilization, CD22 proteins were treated with SialoExo (Genovis, Cat #G1-SM1-020) for 4 hours at 37° C. to remove native sialic acid residues.
Surface preparation for cyno CD22 protein consisted of amine coupling to Cytiva CM5 chip (Cytiva, Cat #BR100530) using the Cytiva amine coupling kit Type 2 (Cytiva, Cat #BR100633). Following the standard amine coupling protocols, EDC and NHS from the kit were mixed 1:1 and injected over flow cells 1 and 2. […] Any active carboxy groups were then capped with 1M Ethanolamine, pH 8.5 for 420s on flow cells 1 and 2.
Binding experiments of Siglec-ligand conjugated proteins or Siglec ligand compounds were performed on the surfaces prepared above in 10 mM HEPES, 150 mM NaCl, 0.05% Tween-20, pH 7.5, 1% DMSO as the running buffer. […] The compounds were then allowed to dissociate from the surface for 120 seconds. […] Solvent correction was performed using 0.5, 1, 1.5, and 2% DMSO spike into running buffer without DMSO. […] Data was analyzed using steady-state analysis in Biacore Insight Evaluation Software, version 3.0 for Siglec ligand compounds.

Row | Kd [1] | Kd [2] | Kd (cynomolgus Siglec-2/CD22) | Compound
1 | > 10000 nM | 1000 to 10000 nM | 1000 to 10000 nM | C#CCOCCCCCCO[C@]1(C(=O)O)C[C@H](O)[C@@H](NC(=O)CC2CC2)[C@H]([C@H](O)[C@H](O)CNC(=O)Cc2ccc(Cl)cc2)O1 [Compound 88, (2R,4S,5R,6R)-6-((1R,2R)-3-(2-(4-chlorophenyl)acetamido)-1,2-dihydroxypropyl)-5-(2-cyclopropylacetamido)-4-hydroxy-2-((6-(prop-2-yn-1-yloxy)hexyl)oxy)tetrahydro-2H-pyran-2-carboxylic acid]
2 | < 1000 nM | < 1000 nM | < 1000 nM | CCCNC(=O)CCOCCOCCOCCn1cc(CCOc2ccc(CO[C@]3(C(=O)O)C[C@H](O)[C@@H](NC(N)=O)[C@H]([C@H](O)[C@H](O)CNC(=O)Cc4ccc(Cl)cc4)O3)cc2)nn1 [Compound 222, (2R,4S,5R,6R)-6-((1R,2R)-3-(2-(4-chlorophenyl)acetamido)-1,2-dihydroxypropyl)-4-hydroxy-2-((4-(2-(1-(12-oxo-3,6,9-trioxa-13-azahexadecyl)-1H-1,2,3-triazol-4-yl)ethoxy)benzyl)oxy)-5-ureidotetrahydro-2H-pyran-2-carboxylic acid]
3 | < 1000 nM | < 1000 nM | < 1000 nM | CC(=O)NCCOCCOCCOCCOCc1cn(CCCCCCCCO[C@]2(C(=O)O)C[C@H](O)[C@@H](NC(=O)CO)[C@H]([C@H](O)[C@H](O)CNC(=O)Cc3ccc(C(F)F)cc3)O2)nn1 [Compound 259, (2R,4S,5R,6R)-6-((1R,2R)-3-(2-(4-(difluoromethyl)phenyl)acetamido)-1,2-dihydroxypropyl)-4-hydroxy-5-(2-hydroxyacetamido)-2-((8-(4-(15-oxo-2,5,8,11-tetraoxa-14-azahexadecyl)-1H-1,2,3-triazol-1-yl)octyl)oxy)tetrahydro-2H-pyran-2-carboxylic acid]
4 | > 10000 nM | 1000 to 10000 nM | 1000 to 10000 nM | C#CCCOc1cccc(CO[C@]2(C(=O)O)C[C@H](O)[C@@H](NC(C)=O)[C@H]([C@H](O)[C@H](O)CNC(=O)c3cccc(Oc4ccccc4)c3)O2)c1 [Compound 23, (2R,4S,5R,6R)-5-acetamido-2-((3-(but-3-yn-1-yloxy)benzyl)oxy)-6-((1R,2R)-1,2-dihydroxy-3-(3-phenoxybenzamido)propyl)-4-hydroxytetrahydro-2H-pyran-2-carboxylic acid]
5 | 1000 to 10000 nM | < 1000 nM | 1000 to 10000 nM | C#CCOc1ccc(CO[C@]2(C(=O)O)C[C@H](O)[C@@H](NC(=O)CO)[C@H]([C@H](O)[C@H](O)CNC(=O)Cc3ccc(-c4ccc(F)cc4)cc3)O2)cc1 [Compound 48, (2R,4S,5R,6R)-6-((1R,2R)-3-(2-(4′-fluoro-[1,1′-biphenyl]-4-yl)acetamido)-1,2-dihydroxypropyl)-4-hydroxy-5-(2-hydroxyacetamido)-2-((4-(prop-2-yn-1-yloxy)benzyl)oxy)tetrahydro-2H-pyran-2-carboxylic acid]
6 | < 1000 nM | < 1000 nM | < 1000 nM | C#CCCOc1ccc(CS[C@]2(C(=O)O)C[C@H](O)[C@@H](NC(=O)CO)[C@H]([C@H](O)[C@H](O)CNC(=O)Cc3ccc(Cl)cc3)O2)cc1 [Compound 122, (2S,4S,5R,6R)-2-((4-(but-3-yn-1-yloxy)benzyl)thio)-6-((1R,2R)-3-(2-(4-chlorophenyl)acetamido)-1,2-dihydroxypropyl)-4-hydroxy-5-(2-hydroxyacetamido)tetrahydro-2H-pyran-2-carboxylic acid]
7 | 1000 to 10000 nM | < 1000 nM | < 1000 nM | C#CCOCCCCCCO[C@]1(C(=O)O)C[C@H](O)[C@@H](NC(=O)C(F)(F)F)[C@H]([C@H](O)[C@H](O)CNC(=O)Cc2ccc(Cl)cc2)O1 [Compound 90, (2R,4S,5R,6R)-6-((1R,2R)-3-(2-(4-chlorophenyl)acetamido)-1,2-dihydroxypropyl)-4-hydroxy-2-((6-(prop-2-yn-1-yloxy)hexyl)oxy)-5-(2,2,2-trifluoroacetamido)tetrahydro-2H-pyran-2-carboxylic acid]
8 | 1000 to 10000 nM | 1000 to 10000 nM | 1000 to 10000 nM | C#CCCOc1ccc(CO[C@]2(C(=O)O)C[C@H](O)[C@@H](NC(=O)CO)[C@H]([C@H](O)[C@H](O)CNC(=O)Cc3ccc4nn[nH]c4c3)O2)cc1 [Compound 9, (2R,4S,5R,6R)-6-((1R,2R)-3-(2-(1H-benzo[d][1,2,3]triazol-6-yl)acetamido)-1,2-dihydroxypropyl)-2-((4-(but-3-yn-1-yloxy)benzyl)oxy)-4-hydroxy-5-(2-hydroxyacetamido)tetrahydro-2H-pyran-2-carboxylic acid]
9 | < 1000 nM | < 1000 nM | < 1000 nM | C#CCOCCCCCCO[C@]1(C(=O)O)C[C@H](O)[C@@H](NC(C)=S)[C@H]([C@H](O)[C@H](O)CNC(=O)Cc2ccc(Cl)cc2)O1 [Compound 26, (2R,4S,5R,6R)-6-((1R,2R)-3-(2-(4-chlorophenyl)acetamido)-1,2-dihydroxypropyl)-5-ethanethioamido-4-hydroxy-2-((6-(prop-2-yn-1-yloxy)hexyl)oxy)tetrahydro-2H-pyran-2-carboxylic acid]
10 | 1000 to 10000 nM | 1000 to 10000 nM | 1000 to 10000 nM | C#CCCOc1ccc(CO[C@]2(C(=O)O)C[C@H](O)[C@@H](NC(=O)CO)[C@H]([C@H](O)[C@H](O)CNC(=O)Cc3cccc(NC(C)=O)c3)O2)cc1 [Compound 164, (2R,4S,5R,6R)-6-((1R,2R)-3-(2-(3-acetamidophenyl)acetamido)-1,2-dihydroxypropyl)-2-((4-(but-3-yn-1-yloxy)benzyl)oxy)-4-hydroxy-5-(2-hydroxyacetamido)tetrahydro-2H-pyran-2-carboxylic acid]
11 | 1000 to 10000 nM | < 1000 nM | < 1000 nM | CC(=O)NCCOCCOCCOCCOCCNC(=O)CCCCCCO[C@]1(C(=O)O)C[C@H](O)[C@@H](NC(=O)CO)[C@H]([C@H](O)[C@H](O)CNC(=O)Cc2ccc(Cl)cc2)O1 [Compound 264, (2R,4S,5R,6R)-6-((1R,2R)-3-(2-(4-chlorophenyl)acetamido)-1,2-dihydroxypropyl)-2-((2,19-dioxo-6,9,12,15-tetraoxa-3,18-diazapentacosan-25-yl)oxy)-4-hydroxy-5-(2-hydroxyacetamido) tetrahydro-2H-pyran-2-carboxylic acid]
12 | 1000 to 10000 nM | 1000 to 10000 nM | 1000 to 10000 nM | C#CCOc1ccc(CO[C@]2(C(=O)O)C[C@H](O)[C@@H](NC(=O)CO)[C@H]([C@H](O)[C@H](O)CNC(=O)Cc3ccccc3O)O2)cc1 [Compound 145, (2R,4S,5R,6R)-6-((1R,2R)-1,2-dihydroxy-3-(2-(2-hydroxyphenyl)acetamido)propyl)-4-hydroxy-5-(2-hydroxyacetamido)-2-((4-(prop-2-yn-1-yloxy)benzyl)oxy)tetrahydro-2H-pyran-2-carboxylic acid]
